Values of other authors in US20100015044A1, “Methods and compositions for diagnosis of iga-and igm-mediated kidney diseases” (priority 2005, published 2010).

Assays:
[1] = tested on: IgG; conditions: transfection studies in leukocytes
[2] = tested on: human IgA
[3] = target: murine IgM (Mus musculus, UniProt P01872)
[4] = tested on: human rheumatoid factor
[5] = tested on: other immunoglobulins
[6] = tested on: IgA
[7] = target: IgM (Homo sapiens, UniProt P01871)
Sequence of IgM (P01871 1-433 limits assumed): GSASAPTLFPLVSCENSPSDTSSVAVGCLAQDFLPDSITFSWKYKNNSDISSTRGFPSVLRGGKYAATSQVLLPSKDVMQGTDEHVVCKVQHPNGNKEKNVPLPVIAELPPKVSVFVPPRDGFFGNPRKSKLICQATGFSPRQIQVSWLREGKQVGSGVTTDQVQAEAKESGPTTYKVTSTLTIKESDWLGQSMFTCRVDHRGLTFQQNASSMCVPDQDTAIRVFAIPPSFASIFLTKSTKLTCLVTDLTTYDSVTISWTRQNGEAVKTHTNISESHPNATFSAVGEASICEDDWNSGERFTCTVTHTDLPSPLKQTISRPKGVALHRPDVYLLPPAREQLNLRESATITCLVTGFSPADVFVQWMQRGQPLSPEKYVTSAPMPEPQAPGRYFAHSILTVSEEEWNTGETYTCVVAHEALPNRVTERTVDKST
Sequence of IgM (P01591 23-159 partner): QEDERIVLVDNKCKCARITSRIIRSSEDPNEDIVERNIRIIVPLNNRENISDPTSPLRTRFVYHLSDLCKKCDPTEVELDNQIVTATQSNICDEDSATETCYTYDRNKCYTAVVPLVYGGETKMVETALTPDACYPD

Sequence of murine IgM (P01872 whole entry, other chains not shown): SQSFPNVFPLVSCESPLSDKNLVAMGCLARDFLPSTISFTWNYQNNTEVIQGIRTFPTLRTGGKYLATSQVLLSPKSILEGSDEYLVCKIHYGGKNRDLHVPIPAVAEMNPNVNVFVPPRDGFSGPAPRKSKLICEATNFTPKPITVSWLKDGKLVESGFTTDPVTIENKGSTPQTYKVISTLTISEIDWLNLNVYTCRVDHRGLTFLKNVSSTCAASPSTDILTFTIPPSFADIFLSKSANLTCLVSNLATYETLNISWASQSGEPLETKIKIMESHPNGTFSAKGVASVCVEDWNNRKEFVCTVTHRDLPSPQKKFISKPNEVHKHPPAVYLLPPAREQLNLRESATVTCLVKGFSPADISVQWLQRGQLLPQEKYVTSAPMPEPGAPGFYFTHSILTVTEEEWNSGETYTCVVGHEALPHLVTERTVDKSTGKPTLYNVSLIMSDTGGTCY
Sequence of murine IgM (P01592 23-159 partner limits assumed, other chains not shown): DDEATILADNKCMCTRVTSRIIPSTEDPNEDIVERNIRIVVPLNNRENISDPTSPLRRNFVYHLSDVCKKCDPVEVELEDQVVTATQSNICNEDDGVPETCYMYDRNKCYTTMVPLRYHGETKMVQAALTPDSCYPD

FcαR1: human membrane glycoprotein Fc receptor for IgA
binding to IgG [1]: does not bind IgG

Sap: 50-residue synthetic peptide including the 29-residue IgA-binding region of Sir22, with C-terminal cysteine (YYALSDAKEEEPRYKALRGENQDLREKERKYQDKIKKLEEKEKNLEKKSC; Sap)
binding to human IgA [2]: specifically binds

YDWIPSSAW (IgM binding peptide) [YDWIPS SAW]
binding to murine IgM [3]: high affinity | inhibition of human rheumatoid factor induced agglutination of IgG-coated latex beads [4]: inhibits | binding to other immunoglobulins [5]: no binding abilities

B1: human Fcα/μ receptor: human receptor constitutively expressed on the majority of B-lymphocytes and macrophages (protein, listed as Homo sapiens)
chain: MDGEATVKPGEQVPLWTHGWPPDDPSPSFAAGSSFALPQKRPHPRWLWEGSLPSRTHLRAMGTLRPSSPLCWREESSFAAPNSLKGSRLVSGEPGGAVTIQCHYAPSSVNRHQRKYWCRLGPPRWICQTIVSTNQYTHHRYRDRVALTDFPQRGLFVVRLSQLSPDDIGCYLCGIGSENNMLFLSMNLTISAGPASTLPTATPAAGELTMRSYGTASPVANRWTPGTTQTLGQGTAWDTVASTPGTSKTTASAEGRRTPGATRPAAPGTGSWAEGSVKAPAPIPESPPSKSRSMSNTTEGVWEGTRSSVTNRARASKDRREMTTTKADRPREDIEGVRIALDAAKKVLGTIGPPALVSETLAWEILPQATPVSKQQSQGSIGETTPAAGMWTLGTPAADVWITSMEAASGEGSAAGDLDAATGDRGPQATLSQTPAVGPWGPPGKESSVKRATCPGLSTLKEIKVSAVLTQNPHSLLCVSAAQEAERVTLIQMTHFLEVNPQADQLPHVERKMLQDDSLPAGASLTAPERNPGP
binding to IgA [6]: intermediate to high affinity | binding to IgM [7]: intermediate to high affinity
